Among the data in patent US8163781B2, “Bi-aryl aminotetralines” (Hoffman-La Roche Inc., priority 2008, dated 2012) are IC50 values, retold here.

The target of this experiment is T1, human CRTH2 (Homo sapiens, UniProt Q9Y5Y4).
T1 construct: expressed in transfected cells
T1 sequence (Q9Y5Y4 1-395): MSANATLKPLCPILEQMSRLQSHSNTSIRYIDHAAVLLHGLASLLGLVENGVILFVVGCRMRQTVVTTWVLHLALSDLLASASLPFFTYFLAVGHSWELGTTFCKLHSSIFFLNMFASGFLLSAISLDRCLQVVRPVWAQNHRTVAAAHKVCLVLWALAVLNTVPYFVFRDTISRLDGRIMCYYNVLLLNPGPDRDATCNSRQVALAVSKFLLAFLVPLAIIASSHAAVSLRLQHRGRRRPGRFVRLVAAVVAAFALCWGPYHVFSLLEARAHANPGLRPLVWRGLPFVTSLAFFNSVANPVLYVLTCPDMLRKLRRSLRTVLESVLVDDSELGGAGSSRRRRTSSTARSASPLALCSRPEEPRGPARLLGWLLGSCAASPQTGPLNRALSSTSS
As to the kind of experiment: Human CRTH2 Receptor Binding Assay. The conditions noted are these: whole cell binding, CHO-K1 cells expressing human CRTH2, 20 nM [3H]ramatroban as competing radioligand. The source says:
A whole cell receptor binding assay using [^3H]ramatroban as the competing radioactive ligand was employed to evaluate the compound binding activity to human CRTH2. The radioactive ligand [^3H]ramatroban was synthesized according to Sugimoto et. al. (Eur. J. Pharmacol. 524, 30-37, 2005) to a specific activity of 42 Ci/mmol.
A cell line stably expressing human CRTH2 was established by transfecting CHO-K1 cells with two mammalian expression vectors that harbored human CRTH2 and G-alpha16 cDNAs, respectively, using FuGene® 6 transfection reagent (from Roche). Stable clones expressing CRTH2 were selected by staining each clone with BM16 (BD Pharmingen™ from BD Biosciences, a division of Becton, Dickinson and Company), which is a rat monoclonal antibody to human CRTH2. The cells were maintained as monolayer cultures in Ham's F-12 medium containing 10% fetal bovine serum, 100 units/mL penicillin, 100 μg/mL streptomycin, 2 mM glutamine, 0.5 mg/mL G418 (geneticin) for CRTH2, and 0.2 mg/mL hygromycin-B (for G-alpha 16). For whole cell receptor binding assay, the monolayer cells were rinsed once with PBS (phosphate buffered saline), dissociated using ethylenediaminetetraacetate (Versene™ EDTA from the Lonza Inc.), and suspended in PBS containing 10 mM MgCl2 and 0.06% BSA (bovine serum albumin) at 1.5×10^6 cells/mL.
The binding reactions (0.2 mL) were performed in 96-well plates at room temperature in PBS containing 1.5×10^5 cells, 10 mM MgCl2, 0.06% BSA, 20 nM [^3H]ramatroban, and test compound at various concentrations. After 1 hour of binding reactions, the cells were harvested on GF™/B filter microplates (microtiter plates with embedded glass fiber from PerkinElmer, Inc.) and washed 5 times with PBS using a Filtermate™ Harvester (a cell harvester that harvests and washes cells from microplates from PerkinElmer, Inc.). The radioactivities bound to the cells were determined using a microplate scintillation counter (TopCount® NXT, from PerkinElmer, Inc.) after adding 50 μL of Microscint™ 20 scintillation fluid (from PerkinElmer, Inc.) to each well of the filter plates. The radioactivity from non-specific binding was determined by replacing compound with 10 μM of 15(R)-15-methyl PGD2 (from Cayman Chemical Company) in the reaction mixtures. The radioactivity bound to the cells in the absence of compound (total binding) was determined by replacing compound with 0.25% of DMSO (dimethyl sulfoxide) in the reaction mixture. Specific binding data were obtained by subtracting the radioactivity of non-specific binding from each binding data.
The IC50 value is defined as the concentration of the tested compound that is required for 50% inhibition of total specific binding. In order to calculate the IC50 value, the percent inhibition data were determined for 7 concentrations for each compound. The percent inhibition for a compound at each concentration was calculated according to the following formula, [1-(specific binding in the presence of compound)/(total specific binding)]×100. The IC50 value was then obtained by fitting the percent inhibition data to a sigmoidal dose-response (4 parameter logistic) model in the XLfit® software Excel add-in program [from ID Business Solutions Ltd., model 205, where F(x)=(A+(B−A)/(1+((C/x)^D)))].
For orientation: IC50 means the concentration that inhibits the measured activity by half. High values mean weaker potency in that assay, low ones greater potency in that assay. Turning to `Cc1ccc(-c2ccc(S(=O)(=O)N[C@@H]3CCCc4c(OCC(=O)O)cccc43)cc2)cc1` [Example 1-2, [(R)-5-(4′-Methyl-biphenyl-4-sulfonylamino)-5,6,7,8-tetrahydro-naphthalen-1-yloxy]-acetic acid], the IC50 is 51.6 nM.

Turning to `O=C(O)COc1cccc2c1CCCC2NS(=O)(=O)c1cccc(Oc2ccccc2)c1` (stereo not drawn) [Example 1-3, [5-(3-Phenoxy-benzenesulfonylamino)-5,6,7,8-tetrahydro-naphthalen-1-yloxy]-acetic acid], the IC50 is 200 nM.

`O=C(O)COc1cccc2c1CCCC2NS(=O)(=O)c1ccc(Oc2ccccc2)nc1` (stereo not drawn) [Example 1-6, [5-(6-Phenoxy-pyridine-3-sulfonylamino)-5,6,7,8-tetrahydro-naphthalen-1-yloxy]-acetic acid]: the IC50 was 188 nM.

For the compound `O=C(O)COc1cccc2c1CCC[C@H]2NS(=O)(=O)c1ccc(-c2ccc(F)cc2)cc1` [Example 1-7, [(R)-5-(4′-Fluoro-biphenyl-4-sulfonylamino)-5,6,7,8-tetrahydro-naphthalen-1-yloxy]-acetic acid], the IC50 was 52.6 nM.

As to `COc1ccc(-c2ccc(S(=O)(=O)N[C@@H]3CCCc4c(OCC(=O)O)cccc43)cc2)cc1` [Example 1-8, [(R)-5-(4′-Methoxy-biphenyl-4-sulfonylamino)-5,6,7,8-tetrahydro-naphthalen-1-yloxy]-acetic acid], the IC50 was 65.9 nM.

In the case of `O=C(O)COc1cccc2c1CCC[C@H]2NS(=O)(=O)c1ccc(-c2ccc(Cl)cc2)cc1` [Example 1-9, [(R)-5-(4′-Chloro-biphenyl-4-sulfonylamino)-5,6,7,8-tetrahydro-naphthalen-1-yloxy]-acetic acid], the IC50 came to 84.1 nM.

On to `CC(=O)c1ccc(-c2ccc(S(=O)(=O)N[C@@H]3CCCc4c(OCC(=O)O)cccc43)cc2)cc1` [Example 1-10, [(R)-5-(4′-Acetyl-biphenyl-4-sulfonylamino)-5,6,7,8-tetrahydro-naphthalen-1-yloxy]-acetic acid], for which the IC50 was 67.4 nM. The IC50 values of the last two compounds are within 1.5-fold of each other.

Consider `O=C(O)COc1cccc2c1CCCC2NS(=O)(=O)c1cnc(Oc2ccc(F)cc2Cl)c(Br)c1` (stereo not drawn) [Example 2-1, {5-[5-Bromo-6-(2-chloro-4-fluoro-phenoxy)-pyridine-3-sulfonylamino]-5,6,7,8-tetrahydro-naphthalen-1-yloxy}-acetic acid], for which the 50% inhibitory concentration (IC50) is 76.4 nM. The IC50 values of the last two compounds are within 1.5-fold of each other.

Compound `O=C(O)COc1cccc2c1CCC[C@H]2NS(=O)(=O)c1ccc(Oc2ccc(Cl)cc2)c(Cl)c1` [Example 2-2, {(R)-5-[3-Chloro-4-(4-chloro-phenoxy)-benzenesulfonylamino]-5,6,7,8-tetrahydro-naphthalen-1-yloxy}-acetic acid] yielded an IC50 of 10.2 nM.

As for `N#Cc1cccc(Oc2ncc(S(=O)(=O)NC3CCCc4c(OCC(=O)O)cccc43)cc2Br)c1` (stereo not drawn) [Example 2-6, {5-[5-Bromo-6-(3-cyano-phenoxy)-pyridine-3-sulfonylamino]-5,6,7,8-tetrahydro-naphthalen-1-yloxy}-acetic acid], the IC50 turned out to be 60.3 nM.

In the case of `CC(C)c1cccc(Oc2ncc(S(=O)(=O)NC3CCCc4c(OCC(=O)O)cccc43)cc2Br)c1` (stereo not drawn) [Example 2-9, {5-[5-Bromo-6-(3-isopropyl-phenoxy)-pyridine-3-sulfonylamino]-5,6,7,8-tetrahydro-naphthalen-1-yloxy}-acetic acid], the IC50 worked out at 21.2 nM.

Compound `Cc1cc(C)cc(Oc2ncc(S(=O)(=O)NC3CCCc4c(OCC(=O)O)cccc43)cc2Br)c1` (stereo not drawn) [Example 2-15, {5-[5-Bromo-6-(3,5-dimethyl-phenoxy)-pyridine-3-sulfonylamino]-5,6,7,8-tetrahydro-naphthalen-1-yloxy}-acetic acid] had an IC50 of 75.2 nM.

`O=C(O)COc1cccc2c1CCCC2NS(=O)(=O)c1cnc(Oc2ccc3c(c2)CCC3)c(Br)c1` (stereo not drawn) [Example 2-17, {5-[5-Bromo-6-(indan-5-yloxy)-pyridine-3-sulfonylamino]-5,6,7,8-tetrahydro-naphthalen-1-yloxy}-acetic acid] gave an IC50 of 115 nM.

For the compound `O=C(O)COc1cccc2c1CCCC2NS(=O)(=O)c1cnc(Oc2ccc(CCO)cc2)c(Br)c1` (stereo not drawn) [Example 2-22, (5-{5-Bromo-6-[4-(2-hydroxy-ethyl)-phenoxy]-pyridine-3-sulfonylamino}-5,6,7,8-tetrahydro-naphthalen-1-yloxy)-acetic acid], the IC50 worked out at 31.7 nM.

For `O=C(O)COc1cccc2c1CCC[C@H]2NS(=O)(=O)c1ccc(Oc2ccc(F)cc2)c(C(F)(F)F)c1` [Example 2-42, {(R)-5-[4-(4-Fluoro-phenoxy)-3-trifluoromethyl-benzenesulfonylamino]-5,6,7,8-tetrahydro-naphthalen-1-yloxy}-acetic acid], the IC50 is 11.2 nM.

For `O=C(O)COc1cccc2c1CCCC2NS(=O)(=O)c1ccc(-c2cc(F)ccn2)cc1` (stereo not drawn) [Example 3-1, {5-[4-(4-Fluoro-pyridin-2-yl)-benzenesulfonylamino]-5,6,7,8-tetrahydro-naphthalen-1-yloxy}-acetic acid], the IC50 was found to be 55.1 nM. This IC50 is about 4.9-fold higher than that of the compound before.

Compound `O=C(O)COc1cccc2c1CCCC2NS(=O)(=O)c1ccc(-c2cccnc2F)cc1` (stereo not drawn) [Example 3-3, {5-[4-(2-Fluoro-pyridin-3-yl)-benzenesulfonylamino]-5,6,7,8-tetrahydro-naphthalen-1-yloxy}-acetic acid] came in with an IC50 of 203 nM.

Regarding `Cc1cccc(-c2ccc(S(=O)(=O)NC3CCCc4c(OCC(=O)O)cccc43)cc2)n1` (stereo not drawn) [Example 3-9, {5-[4-(6-Methyl-pyridin-2-yl)-benzenesulfonylamino]-5,6,7,8-tetrahydro-naphthalen-1-yloxy}-acetic acid], the IC50 came to 74.9 nM. This IC50 lies about 2.7-fold lower than the previous one.

For `CS(=O)(=O)c1cncc(-c2ccc(S(=O)(=O)NC3CCCc4c(OCC(=O)O)cccc43)cc2)c1` (stereo not drawn) [Example 3-16, {5-[4-(5-Methanesulfonyl-pyridin-3-yl)-benzenesulfonylamino]-5,6,7,8-tetrahydro-naphthalen-1-yloxy}-acetic acid], the IC50 came to 20.3 nM.

Consider `O=C(O)COc1cccc2c1CCC[C@H]2NS(=O)(=O)c1ccc(-c2ccc(O)cc2)cc1` [Example 3-23, [(R)-5-(4′-Hydroxy-biphenyl-4-sulfonylamino)-5,6,7,8-tetrahydro-naphthalen-1-yloxy]-acetic acid], for which the IC50 is 124 nM.

Regarding `CN(C)C(=O)c1ccc(-c2ccc(S(=O)(=O)N[C@@H]3CCCc4c(OCC(=O)O)cccc43)cc2)cc1` [Example 3-30, [(R)-5-(4′-Dimethylcarbamoyl-biphenyl-4-sulfonylamino)-5,6,7,8-tetrahydro-naphthalen-1-yloxy]-acetic acid], the IC50 came out at 67.1 nM.

The compound `Cc1ccc(-c2ccc(S(=O)(=O)N[C@@H]3CCCc4c(OCC(=O)O)cccc43)cc2C)cc1` [Example 3-34, [(R)-5-(2,4′-Dimethyl-biphenyl-4-sulfonylamino)-5,6,7,8-tetrahydro-naphthalen-1-yloxy]-acetic acid] displayed an IC50 of 157 nM. Against the preceding compound, the IC50 is about 2.3-fold higher.

For the compound `O=C(O)COc1cccc2c1CCC[C@H]2NS(=O)(=O)c1ccc(-c2cccc([N+](=O)[O-])c2)cc1` [Example 3-41, [(R)-5-(3′-Nitro-biphenyl-4-sulfonylamino)-5,6,7,8-tetrahydro-naphthalen-1-yloxy]-acetic acid], the IC50 is 23.9 nM.

In turn, `Cc1cc(-c2ccc(S(=O)(=O)N[C@@H]3CCCc4c(OCC(=O)O)cccc43)cc2)cc(C(C)(C)C)c1` [Example 3-45, [(R)-5-(3′-tert-Butyl-5′-methyl-biphenyl-4-sulfonylamino)-5,6,7,8-tetrahydro-naphthalen-1-yloxy]-acetic acid] returned an IC50 of 5.9 nM.
